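Exposure lasted 48 hours, with cells grown in 96-well plates and compounds tested at five concentrations. At the TGI there is no net growth.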
Legend:
Assay in all cases: NCI anticancer screen, dose series, 48 h
MCF7 breast = tested on: MCF7 breast
KM12 colon = tested on: KM12 colon
A549 NSCLC = tested on: A549 NSCLC
SK-OV-3 ovarian = tested on: SK-OV-3 ovarian
IGROV1 ovarian = tested on: IGROV1 ovarian
TK-10 renal = tested on: TK-10 renal
SNB-75 CNS = tested on: SNB-75 CNS
LOX IMVI melanoma = tested on: LOX IMVI melanoma
DU-145 prostate = tested on: DU-145 prostate
MDA-MB-435 = tested on: MDA-MB-435
HCC-2998 colon = tested on: HCC-2998 colon
HS 578T breast = tested on: HS 578T breast
SNB-19 CNS = tested on: SNB-19 CNS
NCI-H226 lung = tested on: NCI-H226 lung
COLO 205 colon = tested on: COLO 205 colon

Structure (SMILES)	TGI (MCF7 breast)	TGI (KM12 colon)	TGI (A549 NSCLC)	TGI (SK-OV-3 ovarian)	TGI (IGROV1 ovarian)	TGI (TK-10 renal)	TGI (SNB-75 CNS)	TGI (LOX IMVI melanoma)	TGI (DU-145 prostate)	TGI (MDA-MB-435)	TGI (HCC-2998 colon)	TGI (HS 578T breast)	TGI (SNB-19 CNS)	TGI (NCI-H226 lung)	TGI (COLO 205 colon)
Nc1nc(Nc2ccc(Cl)cc2)sc1C(=O)c1cc2ccccc2oc1=O	> 100 µM	> 100 µM	> 100 µM	> 100 µM	> 100 µM	> 100 µM	68.8 µM	> 100 µM	> 100 µM	> 100 µM	> 100 µM	> 100 µM	> 100 µM	> 100 µM	> 100 µM
COc1cccc(/C=N/n2c(-c3ccccc3)n[nH]c2=O)c1	> 100 µM	> 100 µM	> 100 µM	> 100 µM	–	–	93.2 µM	–	> 100 µM	> 100 µM	> 100 µM	38.8 µM	> 100 µM	> 100 µM	> 100 µM
CCOC(=O)c1sc2nc(SC)nc(Nc3ccc(OC)c(OC)c3)c2c1N	> 100 µM	> 100 µM	> 100 µM	52.9 µM	> 100 µM	76.4 µM	–	> 100 µM	> 100 µM	> 100 µM	> 100 µM	64.3 µM	56 µM	> 100 µM	> 100 µM
Nc1nc(Cl)cc(Nc2ccc3c(c2)CCC3)n1	> 100 µM	> 100 µM	> 100 µM	> 100 µM	> 100 µM	> 100 µM	–	> 100 µM	> 100 µM	> 100 µM	> 100 µM	> 100 µM	> 100 µM	> 100 µM	> 100 µM
O=C(c1nsc(Cl)c1Cl)N1CCCCC1	> 100 µM	> 100 µM	> 100 µM	> 100 µM	> 100 µM	> 100 µM	> 100 µM	> 100 µM	> 100 µM	> 100 µM	> 100 µM	> 100 µM	> 100 µM	> 100 µM	> 100 µM
C=CCSc1nn(CC=C)cc2ncnc1-2	> 100 µM	> 100 µM	> 100 µM	–	> 100 µM	> 100 µM	> 100 µM	–	> 100 µM	> 100 µM	–	> 100 µM	> 100 µM	> 100 µM	> 100 µM
O=S(=O)(Nc1ccccc1S(=O)(=O)c1ccccc1)c1ccccc1	> 100 µM	> 100 µM	> 100 µM	> 100 µM	> 100 µM	> 100 µM	> 100 µM	> 100 µM	> 100 µM	> 100 µM	> 100 µM	> 100 µM	> 100 µM	> 100 µM	> 100 µM
COC(=O)c1ccccc1CC1Cc2cc3c(cc2C1)CCC3	> 100 µM	71.1 µM	> 100 µM	> 100 µM	> 100 µM	> 100 µM	> 100 µM	47.8 µM	> 100 µM	84.2 µM	> 100 µM	> 100 µM	> 100 µM	> 100 µM	52.7 µM
COC(CNC(=O)C(C)NC(=O)C(C)NC(=O)c1ccccc1)OC (stereo not given)	> 100 µM	> 100 µM	> 100 µM	> 100 µM	> 100 µM	> 100 µM	> 100 µM	–	> 100 µM	> 100 µM	–	> 100 µM	–	> 100 µM	> 100 µM
O=C(O)/C(=C\c1ccccc1)Cc1ccccc1	> 100 µM	> 100 µM	> 100 µM	> 100 µM	> 100 µM	> 100 µM	> 100 µM	> 100 µM	> 100 µM	> 100 µM	> 100 µM	> 100 µM	> 100 µM	> 100 µM	> 100 µM
CC(=O)CN=C(C)NNc1ccc([N+](=O)[O-])cc1[N+](=O)[O-]	> 100 µM	–	> 100 µM	> 100 µM	> 100 µM	–	> 100 µM	> 100 µM	> 100 µM	> 100 µM	> 100 µM	> 100 µM	> 100 µM	> 100 µM	> 100 µM
CC1C(c2ccccc2O)c2cc3c(cc2OC1N1CCCC1)OCO3 (stereo not given)	67.4 µM	> 100 µM	> 100 µM	> 100 µM	> 100 µM	> 100 µM	88 µM	44.3 µM	> 100 µM	81.9 µM	> 100 µM	43.3 µM	> 100 µM	> 100 µM	55.5 µM
Cc1cc2c3c(ccc4ncc(c43)CN2c2ccc(NS(C)(=O)=O)cc2)[nH]1	> 100 µM	> 100 µM	88.5 µM	97.5 µM	> 100 µM	73.1 µM	44.3 µM	> 100 µM	> 100 µM	> 100 µM	> 100 µM	> 100 µM	10.4 µM	78.3 µM	> 100 µM
CC(=O)Oc1ccc(-c2cc3ccccc3oc2=O)cc1OC(C)=O	> 100 µM	33.2 µM	94.7 µM	–	–	> 100 µM	> 100 µM	> 100 µM	> 100 µM	> 100 µM	59.3 µM	> 100 µM	> 100 µM	> 100 µM	> 100 µM
CS(=O)(=O)C(=Cc1ccccc1Cl)S(C)(=O)=O	> 100 µM	> 46.4 µM	> 100 µM	> 100 µM	> 100 µM	> 100 µM	> 100 µM	> 100 µM	> 100 µM	> 100 µM	> 100 µM	> 100 µM	> 100 µM	> 100 µM	> 100 µM
Cn1ncc2c(NCCc3ccccc3)nc(Cl)nc21	> 100 µM	85.5 µM	77.4 µM	71.7 µM	> 100 µM	65 µM	76.1 µM	> 100 µM	> 100 µM	44.9 µM	40.3 µM	> 100 µM	> 100 µM	76.1 µM	34.2 µM

— PubChem BioAssay (NCI)
